Experimental data reported in US9648880B2, “Antifungal agents and uses thereof” (University of Massachusetts, priority 2012, dated 2017).

Key:
[1] = test system: C. albicans hyphae formation; assay: filamentation assay (hyphal morphogenesis); type: cell-based, Candida albicans; details: for inhibition of hyphal formation and induction of RFP: 12.5 μM, Spider media 16 hours, HWP1-RFP reporter; for formation of hyphae: Spider media, HWP1-RFP reporter (Example 14)
Description: Because the ability to interconvert between yeast and hyphal morphologies is usually correlated with pathogenicity (Finkel, 2010), we explored this observation in more detail. First, we assessed the effect of our compounds on the induction of hyphae by “Spider” media (Chauhan, 2009). For this experiment, we used a strain that contains the hyphal-specific HWP1 promoter to the Red Fluorescent Protein (RFP) open reading frame (Ganguly, 2011), which provides a molecular reporter for hyphae formation that we used in addition to visual examination of cell morphology. We initially tested each of the compounds that inhibit adhesion to polystyrene (FIG. 1B), as well as compounds #9, Q1 and Q2 (FIG. 3A), at concentration of 12.5 μM. […] Compounds Q1 and Q2 share a “Scaffold 1” backbone with compounds #4 and #9, but contain a quinoline group (FIG. 3A). Therefore, the compounds with a quinoline group can inhibit hyphae formation, but not adhesion to polystyrene or human cells (FIG. 3). […] Additionally, multiple chemical backbones are able to inhibit hyphae formation, because compound #12 has a “Scaffold 2” backbone (Table 2). To better discriminate the inhibitory compounds, we tested #4, 12 and Q1 at lower concentrations. […] Furthermore, as in the polystyrene adhesion assay (FIG. 8), compound #4 is effective at inhibiting hyphae formation at concentrations >2.5 μM.
Overnight cultures of SC5314 or SGH584 were pregrown in uridine-supplemented SC media at 30° C. to an OD600>13 and diluted 1:10 into prewarmed Spider medium (1% Peptone (Difco), 1% Mannitol (Sigma) and 0.2% K2HPO4 (Sigma) (Chauhan, 2009) in glass tubes and grown for 16 hrs at 37° C. shaking at 200 rpm in the presence or absence of drugs as indicated. DIC and fluorescence images were acquired using a Zeiss Axiovert 200 inverted microscope equipped with a Qicam 12-bit Fast 1394 digital CCD camera (Qimaging). Image acquisition was carried out using Openlab 5 software (Improvison).
Because the ability to interconvert between yeast and hyphal morphologies is usually correlated with pathogenicity, we explored this in more detail, examining induction of hyphae upon carbon starvation (using Spider media). We used a strain that contains the Red Fluorescent Protein (RFP) open reading frame driven by the hyphal-specific HWP1 promoter (Ganguly et al., Eukaryotic Cell 10:1448, 2011), which provides a molecular reporter for hyphae formation in addition to cell morphology. […] Therefore, the shared backbone of these compounds correlates with inhibition of multiple activities.
Hyphal morphogenesis is induced by multiple stimuli that act via multiple signal transduction pathways and is mediated by a complex transcriptional network. […] We detected morphological difference between control and compound #4-treated cultures as early as 60 minutes in 10% serum, and 90 minutes in Spider media.

[2] = test system: C. albicans SC5314-GFP biofilm; assay: biofilm formation on silicone elastomers; type: cell-based, Candida albicans; details: for biofilm formation, visual inspection: silicone mesh
Description: FIGS. 5A-5C. Effect of small molecules on biofilm formation in vitro. FIG. 5A is a series of photographs showing biofilm formation on silicone elastomers. Biofilm assay was performed with SC5314-GFP and edt1^Δ/Δ-GFP and photographed after 60 hrs. Indicated compounds were added at 50 μM. Turbid medium indicates planktonic cells unattached to silicone elastomers when biofilm formation is inhibited. Clear medium with the cell attached to the silicone elastomer indicate establishment of functional biofilm. Each treatment was done in triplicate. FIG. 5B is a graph showing quantitation of turbidity of medium. Media was removed from the wells, vortexed vigorously and the OD at 600 nm was measured in a spectrophotometer. FIG. 5C is a graph showing quantitation of dry weight of biofilm. Dry weight in mg of air-dried silicone elastomers.
Fungal biofilm formation on implanted medical devices is a serious medical problem because these biofilms can lead to life-threatening systemic infections. An established in vitro assay to study device colonization makes use of silicone mesh as a surrogate surface (Nobile, 2006). We tested how the compounds that affected polystyrene adhesion (FIG. 1) would affect biofilm formation by visual inspection of the biofilms formed, by measuring the optical density of the supernatant liquid cultures, and by measuring their dry weights. […] Therefore, compounds #4 and Q1 were effective inhibitors of both hyphal morphogenesis (FIG. 4) and biofilm formation on silicone mesh (FIG. 5).
We adapted a published method (Nobile, 2006, supra). Autoclaved, pre-weighed silicone mesh squares (Bentec, Catalog Number PR72034-04N) were incubated overnight at 37° C. with undiluted bovine serum. Following washing with PBS, the squares were transferred to 12-well plates and incubated with 0.5 OD/ml SC5314-GFP cells in Spider medium (with or without drugs as indicated), for 90 min at 37° C., shaking at 200 rpm. Squares were washed in PBS and transferred to new 12-well plates containing fresh Spider medium with fresh drugs and incubated for 60 hrs in a 37° C. shaker at 200 rpm. The plates were then photographed, the liquid media were collected for A600 nm measurements, and the dry weights of the bound biofilms were measured following drying of the silicone squares in a chemical hood.

[3] = test system: C. albicans SC5314; assay: alamarBlue-based polystyrene adhesion assay; type: cell-based, Candida albicans
Description: We prioritized the candidate compounds by testing the dose-dependence of their effects. Because of the laborious washing required to remove background crystal violet dye staining, we developed adhesion assays using alternative detection reagents. Previous experiments screens have used the vital dye alamarBlue to measure Candida viability (Lafleur, J. Antimicrob Chemother. 66: 820-826, 2011; Youngsaye supra), so we tested this reagent as a way to measure cells remaining adhered after washing. […] The majority of the reordered compounds were effective at reducing Candida adhesion at 50 μM, the concentration originally tested during the screen. […] Although compounds that were still effective at 25 μM were less generally less so at 7.5 μM (FIG. 1C), many candidates still reduced adhesion by >50% at this lower concentration.
Overnight cultures of SC5314 and edt1^−/− cells were grown and plated onto Immulon 2HB 96-well microtiter plates and treated with small molecules as described above. Following incubations, media was decanted and plates were washed twice with 100 μl/well PBS. alamarBlue (Life Technologies) was resuspended to a final concentration of 5% in RPMI buffered with 0.165 M MOPS and then 100 μl was added to each well, followed by further incubation for 2 hours at 37° C. Fluorescence signals at 555Ex/585Em were read using a SpectraMax M5 Plate reader (Molecular Devices).

[4] = test system: C. elegans infected with C. albicans; assay: C. elegans pathogenesis assay; type: in vivo, Caenorhabditis elegans; details: 12.5 μM
Description: We therefore tested whether compound #4 can alter fungal infections in two in vivo settings. First, we performed pathogenesis assays in which nematodes (Caenorhabditis elegans) are infected with C. albicans, resulting in killing of the nematode host (Jain, 2009; Okoli, 2009). We used this assay to test whether compound #4 might have a protective effect, exposing C. elegans to Candida albicans and either DMSO vehicle, the commonly used antifungal drug fluconazole at 12.5 μM, or compound #4 at the same concentration. […] Therefore, consistent with its in vitro activities, compound #4 functions as an antifungal agent in this model infection system.
Three worms in the L3/L4 stage were transferred to each of two NGM agar plates containing E. coli OP50 and grown at 20° C. for four days. On the day of the experiment, worms were washed off the plates with M9 buffer and centrifuged at 900×g for 2 min. The supernatant was removed, and the worms were then resuspended in a bleach solution (1:4 dilution of commercial bleach (5.25%) diluted in 0.25 M sodium hydroxide). The worm suspension was mixed gently by inversion for 3 min, and centrifuged for 2 min at 2,000×g. The pellet containing the eggs was washed with M9 buffer and centrifuged at 2,000×g for 2 min and then resuspended in 500 μl M9 buffer. […]

Row | SMILES | inhibition of hyphal formation and induction of RFP [1] | biofilm formation, visual inspection ([2]; 50 μM, 60 hrs) | formation of hyphae [1] | further results
1 | O=C(c1csc2ccccc12)N1CCN(c2ccc(Cl)c(Cl)c2)CC1 [Compound 3] | did not block hyphal formation as efficiently |  |  | 
2 | Cc1ccc(C(=O)N2CCN(c3ccc(Cl)cc3)CC2)cc1C [Compound 7] | did not block hyphal formation as efficiently | most effectively kept the cells dispersed in the media rather than on the mesh |  | 
3 | Cc1ccc(N2CCN(C(=O)c3ccccc3)CC2)cc1Cl [Compound 8] | did not block hyphal formation as efficiently |  |  | 
4 | COc1ccc(C(=O)Nc2cccc(Cl)c2)cc1Br [Compound 12] | most potently inhibited hyphal formation and induction of RFP | most effectively kept the cells dispersed in the media rather than on the mesh |  | synergy on adhesion upon combining compound #4 and compound #12 ([3]; #4 1.5 μM with #12 4 and 6 μM): did not further reduce adhesion; effect on adhesion of compound alone ([3]; compound #4 1.5 μM, compound #12 4 and 6 μM): partial effects; hyphae formation induced by Spider media ([1]; 5 μM): A few hyphae were observed; hyphae formation induced by Spider media ([1]; 10 μM): completely blocked the hyphae formation
5 | CCOc1ccc(NC(=O)c2c(NC(=O)CNCCc3ccccc3)sc3c2CCC3)cc1 [Compound 14] |  |  | blocked formation of hyphae | 
6 | Cc1cc(C)n(CC(O)Cn2c3ccc(Cl)cc3c3cc(Cl)ccc32)c(=O)n1 (centres unmarked) [Compound 21] |  | most effectively kept the cells dispersed in the media rather than on the mesh |  | media density (OD 600 nm) ([2]; 50 μM, 60 hrs): more modest than for the other compounds tested
7 | O=C(NCCC12CC3CC(CC(C3)C1)C2)c1ccc(S(=O)(=O)N2CCOCC2)cc1 [Compound 26] |  |  | blocked formation of hyphae | 
8 | COc1ccc(N2CCN(C(=O)CCCN3C(=O)c4cccc5cccc(c45)C3=O)CC2)cc1 [Compound 27] |  |  | blocked formation of hyphae | biofilm formation on silicone mesh ([2]; Example 14): effective inhibitors of both hyphal morphogenesis and biofilm formation on silicone mesh
9 | OC(Cn1cncn1)(Cn1cncn1)c1ccc(F)cc1F [fluconazole, reference compound] |  |  |  | lifespan of infected worms [4]: increased the lifespan of the infected worms
